This is an account of results in ChEMBL document CHEMBL4422619, “Continued exploration of 1,2,4-oxadiazole periphery for carbonic anhydrase-targeting primary arene sulfonamides: Discovery of subnanomolar inhibitors of membrane-bound hCA IX isoform that selectively kill cancer cells in hypoxic environment” (Eur J Med Chem, 2019).

Usually Ki stands for a measure of affinity in units of concentration, obtained from inhibition or displacement.

The source made the active and inactive calls. No cut-off for these calls is given here.

Series [1] concerns the target Carbonic anhydrase 1 (Homo sapiens, UniProt P00915). The series is described as follows: Inhibition of human carbonic anhydrase 1 assessed as reduction in CO2 hydration after 15 mins by phenol red staining-based stopped flow assay.
In series [2] the target is Carbonic anhydrase 2 (Homo sapiens, UniProt P00918). The series is described as follows: Inhibition of human carbonic anhydrase 2 assessed as reduction in CO2 hydration after 15 mins by phenol red staining-based stopped flow assay.
For series [3], the target named is Carbonic anhydrase 9 (Homo sapiens, UniProt Q16790).
Description: Inhibition of human carbonic anhydrase 9 assessed as reduction in CO2 hydration after 15 mins by phenol red staining-based stopped flow assay
Series [4] concerns the target Carbonic anhydrase 12 (Homo sapiens, UniProt O43570).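 Note: Stopped-flow CO2 hydration assay with phenol red indicator, 15 min, measuring inhibition of human CA XII enzymatic activity.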
Description: Inhibition of human carbonic anhydrase 12 assessed as reduction in CO2 hydration after 15 mins by phenol red staining-based stopped flow assay
Series [5] relates to ARPE-19. The series is described as follows: Antiproliferative activity against human ARPE19 cells at 300 uM after 48 hrs in presence of normoxic condition by MTT assay. The following applies: arpe-19, 48 h. The class given is cell-based. (In general: Tetrazolium assays rely on reduction of a dye to a coloured formazan, in cell work by metabolically active cells.)
The test system of series [6] is ARPE-19. The series is described as follows: Antiproliferative activity against human ARPE19 cells at 300 uM after 48 hrs in presence of hypoxic condition by MTT assay. The class given is cell-based. To be noted: arpe-19, 48 h.
For series [7], the system named is ARPE-19. The series is described as follows: Antiproliferative activity against human ARPE19 cells at 30 uM after 48 hrs in presence of normoxic condition by MTT assay. The class given is cell-based. The following applies: arpe-19, 48 h.
The subject of series [8] is ARPE-19. The series is described as follows: Antiproliferative activity against human ARPE19 cells at 30 uM after 48 hrs in presence of hypoxic condition by MTT assay. The following applies: arpe-19, 48 h. It counts as cell-based.
Series [9] deals with SK-MEL-2. The series is described as follows: Antiproliferative activity against human SK-MEL-2 cells at 30 uM after 48 hrs in presence of normoxic condition by MTT assay. The class given is functional, cell-based.
Series [10] concerns SK-MEL-2. The series is described as follows: Antiproliferative activity against human SK-MEL-2 cells at 30 uM after 48 hrs in presence of hypoxic condition by MTT assay. It counts as functional, cell-based.
Series [11] relates to SK-MEL-2. The series is described as follows: Antiproliferative activity against human SK-MEL-2 cells at 300 uM after 48 hrs in presence of normoxic condition by MTT assay. The class given is functional, cell-based.
In series [12] the test system is SK-MEL-2. The series is described as follows: Antiproliferative activity against human SK-MEL-2 cells at 300 uM after 48 hrs in presence of hypoxic condition by MTT assay. It counts as functional, cell-based.
The test system of series [13] is PANC-1. The series is described as follows: Antiproliferative activity against human PANC1 cells at 30 to 300 uM after 48 hrs in presence of normoxic condition by MTT assay. The class given is functional, cell-based.
Series [14] relates to PANC-1. The series is described as follows: Antiproliferative activity against human PANC1 cells at 30 to 300 uM after 48 hrs in presence of hypoxic condition by MTT assay. It counts as functional, cell-based.
Series [15] concerns PANC-1. The series is described as follows: Antiproliferative activity against human PANC1 cells at 30 uM after 48 hrs in presence of normoxic condition by MTT assay. The class given is functional, cell-based.
In series [16] the test system is PANC-1. The series is described as follows: Antiproliferative activity against human PANC1 cells at 30 uM after 48 hrs in presence of hypoxic condition by MTT assay. It counts as functional, cell-based.
The subject of series [17] is ARPE-19. The series is described as follows: Antiproliferative activity against human ARPE19 cells at 30 to 300 uM after 48 hrs in presence of normoxic condition by MTT assay. It counts as cell-based. To be noted: arpe-19, 48 h.
Series [18] deals with ARPE-19. The series is described as follows: Antiproliferative activity against human ARPE19 cells at 30 to 300 uM after 48 hrs in presence of hypoxic condition by MTT assay. The class given is cell-based. The following applies: arpe-19, 48 h.
For series [19], the system named is PANC-1. The series is described as follows: Antiproliferative activity against human PANC1 cells after 48 hrs in presence of normoxic condition by MTT assay. It counts as functional, cell-based.
The test system of series [20] is PANC-1. The series is described as follows: Antiproliferative activity against human PANC1 cells after 48 hrs in presence of hypoxic condition by MTT assay. It counts as functional, cell-based.
In series [21] the test system is SK-MEL-2. The series is described as follows: Antiproliferative activity against human SK-MEL-2 cells after 48 hrs in presence of normoxic condition by MTT assay. It counts as functional, cell-based.
The subject of series [22] is SK-MEL-2. The series is described as follows: Antiproliferative activity against human SK-MEL-2 cells after 48 hrs in presence of hypoxic condition by MTT assay. It counts as functional, cell-based.
Series [23] relates to PANC-1. The series is described as follows: Antiproliferative activity against human PANC1 cells at 300 uM after 48 hrs in presence of normoxic condition by MTT assay. It counts as functional, cell-based.
Series [24] deals with PANC-1. The series is described as follows: Antiproliferative activity against human PANC1 cells at 300 uM after 48 hrs in presence of hypoxic condition by MTT assay. The class given is functional, cell-based.

Sequence of Carbonic anhydrase 1 (P00915 whole entry): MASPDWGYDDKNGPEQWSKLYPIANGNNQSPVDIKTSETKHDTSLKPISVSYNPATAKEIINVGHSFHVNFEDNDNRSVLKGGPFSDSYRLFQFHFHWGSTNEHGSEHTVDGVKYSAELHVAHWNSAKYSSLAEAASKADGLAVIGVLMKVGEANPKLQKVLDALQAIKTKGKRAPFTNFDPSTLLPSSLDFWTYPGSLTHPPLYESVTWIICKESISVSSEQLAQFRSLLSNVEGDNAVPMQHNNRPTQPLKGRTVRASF
Sequence of Carbonic anhydrase 12 (O43570 whole entry): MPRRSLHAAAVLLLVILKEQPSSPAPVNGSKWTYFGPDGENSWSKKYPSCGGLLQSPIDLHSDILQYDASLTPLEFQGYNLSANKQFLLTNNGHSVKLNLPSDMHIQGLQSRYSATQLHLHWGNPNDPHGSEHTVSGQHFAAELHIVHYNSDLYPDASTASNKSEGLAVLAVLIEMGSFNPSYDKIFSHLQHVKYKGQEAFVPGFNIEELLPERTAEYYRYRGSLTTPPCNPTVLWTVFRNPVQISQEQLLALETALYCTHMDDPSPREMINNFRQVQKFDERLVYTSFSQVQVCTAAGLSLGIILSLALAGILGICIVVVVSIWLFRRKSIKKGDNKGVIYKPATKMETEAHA

Regarding `COc1cc(S(N)(=O)=O)ccc1-c1noc(-c2cccnc2)n1`, the Ki turned out to be 1020 nM in series [1], 271 nM in [2], 12.1 nM in [3] and 16.8 nM in series [4].

In the case of `NS(=O)(=O)c1cc(-c2noc(C3CC3)n2)cs1`, the inhibition constant (Ki) came out at 53 nM in series [1], 0.88 nM in [2], 2.1 nM in [3] and 9.2 nM in series [4].

Regarding `NS(=O)(=O)c1cccc(-c2noc(-c3ccsc3)n2)c1`, the Activity result in series [5] is “Toxic”; in [6], “Toxic”; in series [7], “Non-Toxic”; in series [8], “Non-Toxic”. The result in series [9], in series [10], in series [11], in series [12], in [13] and in series [14] was inactive.

For the molecule `NS(=O)(=O)c1cc(-c2nc(C3CC3)no2)cs1`, the Ki is 9.3 nM in series [1], 0.75 nM in series [2], 0.089 nM in series [3] and 10.3 nM in [4]. Besides, the outcome in [15], in series [16], in [9] and in [10] was Active. The Activity result in [7] and in series [8] was “Non-Toxic” each time.

For the molecule `COc1ccccc1-c1noc(-c2ccc(S(N)(=O)=O)cc2)n1`, the Ki in [2] is 0.51 nM; in series [3] it was 21.1 nM.

As to `COc1cc(S(N)(=O)=O)ccc1-c1noc(-c2ccccc2)n1`, the Ki in [1] stood at 459 nM; in [2] it was 8.8 nM; in series [3], 13.1 nM; in [4], 33.1 nM.

For `NS(=O)(=O)c1ccc(-c2noc(-c3ccccn3)n2)cc1`, the Ki in series [1] turned out to be 37.5 nM; in series [2], 0.93 nM; in [3], 0.31 nM; in [4], 9.5 nM.

Turning to `NS(=O)(=O)c1ccc(-c2nc(-c3ccccc3)no2)cc1`, the inhibition constant (Ki) in series [2] stood at 1.8 nM; in series [3] it was 6.7 nM.

As to `COc1cc(S(N)(=O)=O)ccc1-c1noc(-c2cccs2)n1`, the values for the Ki in series [2] and in series [3] were 92.1 nM and 15.9 nM, respectively.

Regarding `COc1cc(S(N)(=O)=O)ccc1-c1noc(-c2ccsc2)n1`, the Ki in series [1] was determined as 1160 nM; in series [2], 92.1 nM; in series [3], 15.9 nM; in series [4] it was 32.1 nM.

Take `COc1cccc(-c2noc(-c3ccc(S(N)(=O)=O)cc3)n2)c1`: the Ki was 0.48 nM in series [2] and 243 nM in series [3].

In the case of `COc1cccc(-c2noc(-c3csc(S(N)(=O)=O)c3)n2)c1`, the Ki was 5.4 nM in [1], 0.82 nM in series [2], 2.2 nM in series [3] and 33.6 nM in series [4]. Besides, the result in series [13] and in series [14] was Active. Further, the Activity result is “Non-Toxic” in series [17], “Non-Toxic” in series [18], “Dose-dependent effect” in series [19] and “Dose-dependent effect” in series [20]. Further, the result in series [21] and in series [22] was inactive.

Take `COc1ccccc1-c1noc(-c2csc(S(N)(=O)=O)c2)n1`: the Ki was found to be 16.2 nM in [1], 0.64 nM in series [2], 0.13 nM in [3] and 8.8 nM in series [4].

Turning to `COc1cc(S(N)(=O)=O)ccc1-c1noc(-c2ccc(C#N)cc2)n1`, the Ki in [1] is 779 nM; in series [2], 593 nM; in [3] it was 274 nM; in series [4] it was 32.9 nM.

For the molecule `NS(=O)(=O)c1ccc(-c2noc(-c3ccncc3)n2)cc1`, the Ki turned out to be 48 nM in [1], 0.3 nM in series [2], 0.44 nM in [3] and 8.2 nM in series [4].

For the molecule `NS(=O)(=O)c1cccc(-c2noc(C3CC3)n2)c1`, the outcome in series [13] and in series [14] was Active. Moreover, the Activity result in series [17] and in series [18] was “Non-Toxic” each time.

For the molecule `NS(=O)(=O)c1ccc(-c2noc(-c3cccs3)n2)cc1`, the Ki in [1] was 7.9 nM; in series [2], 0.39 nM; in series [3], 0.36 nM; in series [4], 8.3 nM. Besides, the Activity entry was “Toxic” in series [5], “Toxic” in series [6], “Non-Toxic” in series [7] and “Non-Toxic” in series [8]. In addition, the result in series [9], in series [10], in series [11], in series [12], in [13] and in series [14] was inactive.

Regarding `NS(=O)(=O)c1ccc(-c2noc(C3CC3)n2)cc1`, the Ki in [1] is 7.8 nM; in series [2] it was 4.1 nM; in [3] it was 1.9 nM; in [4] it was 97.1 nM.

With `NS(=O)(=O)c1cc(-c2nc(-c3ccccn3)no2)cs1`, the inhibition constant Ki in series [1] was found to be 25 nM; in series [2], 4.3 nM; in [3], 0.39 nM; in series [4] it was 8.5 nM. The Activity entry in series [7] is “Non-Toxic”; in series [8], “Non-Toxic”; in series [18] it was “Non-Toxic”; in series [19], “Dose-dependent effect”; in [20], “Dose-dependent effect”. Moreover, the result in series [9], in series [10] and in series [14] was inactive.

`Cc1nc(-c2csc(S(N)(=O)=O)c2)no1`: the Ki was determined as 8.1 nM in series [1], 0.91 nM in series [2], 1.6 nM in [3] and 10.1 nM in [4].

In the case of `NS(=O)(=O)c1cc(-c2nc(-c3ccccc3)no2)cs1`, the Ki is 8.9 nM in series [1], 1.7 nM in series [2], 0.24 nM in series [3] and 9.8 nM in series [4]. For the same molecule, the outcome in [23] and in [24] was Active. Besides, the Activity result in [5] and in series [6] was “Toxic” in each case.
